Where a name gives a salt, the structure may show the parent alone. Read-outs that look alike come from different tables or passages of the source.
Assays:
ddY female mouse = experiment: Effect of test compound on hypoxia (antihypoxic activity); format: in vivo; settings: po, read-out: Antihypoxic activity (%)
Procedure: A test compound dissolved in physiological saline (100 mg/kg) was orally administered to a ddY female mouse (5-6 weeks old, each group consisting of 10 mice). After 1 (or 30 minutes*) hour from the administration, each mouse was placed in a 300-ml glass chamber, and a gas mixture consisting of 4% of oxygen and 96% of nitrogen was passed through the chamber at a rate of 5 liters/min. A time from the start of gas passing to the death of each mouse was measured.
To a control mice group was orally administered only physiological saline.
The antihypoxic activity of the test compound was calculated from the following formula: [formula]

acetylcholinesterase = molecular target: T1, acetylcholinesterase (Mus musculus, UniProt P21836); experiment: Inhibitory activity for acetylcholinesterase (method of Ellman et al.); format: biochemical
T1 construct: a mouse cerebral homogenate (as an acetylcholinesterase source); from tissue; host or cells: mouse cerebrum (homogenate)
T1 sequence (P21836 32-614): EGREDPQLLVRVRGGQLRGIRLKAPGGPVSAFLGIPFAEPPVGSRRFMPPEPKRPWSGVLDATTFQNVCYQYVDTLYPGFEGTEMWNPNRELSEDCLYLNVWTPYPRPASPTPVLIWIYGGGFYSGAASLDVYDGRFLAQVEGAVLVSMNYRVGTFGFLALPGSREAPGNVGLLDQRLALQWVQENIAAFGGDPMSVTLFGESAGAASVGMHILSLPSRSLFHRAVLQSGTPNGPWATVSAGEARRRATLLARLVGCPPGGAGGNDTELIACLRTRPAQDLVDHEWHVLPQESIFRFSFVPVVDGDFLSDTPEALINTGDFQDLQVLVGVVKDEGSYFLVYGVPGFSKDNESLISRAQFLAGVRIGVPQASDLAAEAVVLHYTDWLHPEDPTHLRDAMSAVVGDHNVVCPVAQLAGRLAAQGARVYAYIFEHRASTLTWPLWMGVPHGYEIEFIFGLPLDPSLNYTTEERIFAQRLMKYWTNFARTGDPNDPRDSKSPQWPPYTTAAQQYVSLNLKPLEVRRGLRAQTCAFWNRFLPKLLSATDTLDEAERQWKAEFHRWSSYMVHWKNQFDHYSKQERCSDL
Procedure: A test was conducted in accordance with the method of Ellman et al. [Biochem. Pharmacol., vol. 7, pp. 88-95, 1961].
That is, acetylthiocholine (as a substrate) was added to a phosphate buffer solution containing 5,5'-dithiobis-(2-nitrobenzoic acid) (DTNB), a test compound and a mouse cerebral homogenate (as an acetylcholinesterase source). The resulting mixture was incubated, and the amount of the resulting 5-thio-2-nitrobenzoic acid was photometrically measured at 412 nm.
The inhibitory activity for acetylcholinesterase of the test compound was expressed by the inhibition (%) when the final concentration of the test compound was 10 µg/ml.

ddY male mice = experiment: Acute toxicity; format: in vivo, mouse; settings: 50 mg/kg intravenously, group of 3 ddY male mice
Text: A test compound dissolved in physiological saline was intravenously administered to a group of 3 ddY male mice (5-6 weeks old) to examine the acute toxicity of the test compound.

[1] = final concentration of the test compound 10 µg/ml, mouse cerebral homogenate, read-out: Inhibition (%)
[2] = 100 mg/kg orally, placed in chamber (4% oxygen, 96% nitrogen) after 1 hour from the administration, survival time relative to control
[3] = 0.5 h, 100 mg/kg orally, placed in chamber (4% oxygen, 96% nitrogen) after 30 minutes from the administration (values marked *), survival time relative to control

Row | Compound | inhibition at 10 µg/mL (acetylcholinesterase; [1]) [%] | also measured
1 | CN(C)CCOCC(O)c1ccc(OCc2ccccc2)cc1 (stereo not shown) [Compound No. 48, 1-(4-benzyloxyphenyl)-2-[2-(N,N-dimethylamino)ethoxy]ethanol hydrochloride] | 51 | response vs control in vivo at 100 mg/kg (ddY female mouse; 1 h): 160%
2 | OC(COCCN1CCCC1)c1ccccc1 (stereo not shown) [compound 6] | 13 | Acute toxicity (ddY male mice): no death case
3 | CC(OCCN(C)C)C(O)c1ccccc1 (stereo not shown) [compound 30] | 22 | Acute toxicity (ddY male mice): no death case
4 | OC(COCCN1CCCCC1)c1ccc(Cl)c(Cl)c1 (stereo not shown) [compound 37] | 45 | response vs control in vivo at 100 mg/kg (ddY female mouse; [2]): 148%
5 | CN(C)CCOCC(O)c1ccc(F)cc1 (stereo not shown) [compound 38] | 36 | Acute toxicity (ddY male mice): no death case
6 | CN(C)CCOCC(O)c1cccc([N+](=O)[O-])c1 (stereo not shown) [compound 40] | 26 | Acute toxicity (ddY male mice): no death case
7 | CN(C)CCOCC(O)c1cccc(OCc2ccccc2)c1 (stereo not shown) [compound 47] | 38 | response vs control in vivo at 100 mg/kg (ddY female mouse; [3]): 165%
8 | COc1ccc(-c2ccc(C(O)COCCN(C)C)cc2)cc1 (stereo not shown) [compound 55] | 22 | response vs control in vivo at 100 mg/kg (ddY female mouse; [2]): 207%
9 | CN(C)CCOCC(O)c1cccc(Cc2ccccc2)c1 (stereo not shown) [compound 58] | 45 | response vs control in vivo at 100 mg/kg (ddY female mouse; [2]): 133%
10 | OC(COCCC1CCN(Cc2ccccc2)CC1)c1ccccc1 (stereo not shown) [compound 60] | 71 | 
11 | Cc1cccc(C(O)COCCC2CCN(Cc3ccccc3)CC2)c1 (stereo not shown) [compound 61] | 89 | response vs control in vivo at 100 mg/kg (ddY female mouse; [3]): 184%
12 | OC(COCCC1CCN(Cc2ccccc2)CC1)c1ccc(F)cc1 (stereo not shown) [compound 62] | 78 | response vs control in vivo at 100 mg/kg (ddY female mouse; [2]): 127%
13 | Cc1ccccc1-c1ccc(C(O)COCCN(C)C)cc1 (stereo not shown) [compound 65] | 62 | Acute toxicity (ddY male mice): no death case
14 | CN(C)CCOCC(O)c1ccc(Oc2ccccc2Cl)cc1 (stereo not shown) [compound 70] | 91 | Acute toxicity (ddY male mice): no death case
15 | Cc1cc(C)cc(Oc2ccc(C(O)COCCN(C)C)cc2)c1 (stereo not shown) [compound 72] | 92 | 
16 | CN(C)CCOCC(O)c1ccc(Oc2ccccc2)c(F)c1 (stereo not shown) [compound 73] | 89 | 
17 | OC(COCCC1CCN(Cc2ccccc2)CC1)c1ccc(Oc2ccccc2)cc1 (stereo not shown) [compound 78] | 90 | 
18 | Cc1ccc(Oc2ccc(C(O)COCCN(C)C)cc2)cc1 (stereo not shown) [compound 83] | 93 | response vs control in vivo at 100 mg/kg (ddY female mouse; [3]): 177%
19 | CN(C)CCOCC(O)c1ccc(OCc2ccncc2)cc1 (stereo not shown) [compound 86] | 50 | response vs control in vivo at 100 mg/kg (ddY female mouse; [3]): 130%
20 | CN(C)CCOCC(O)c1ccc(CCc2ccccc2)cc1 (stereo not shown) [compound 89] | 44 | response vs control in vivo at 100 mg/kg (ddY female mouse; [3]): 156%
21 | CCN(CC)CCOCC(O)c1cccc(C)c1 (stereo not shown) [compound 90] | 52 | 
22 | CN(C)CCOCC(O)c1ccc(OCc2cccc(Cl)c2)cc1 (stereo not shown) [compound 97] | 38 | response vs control in vivo at 100 mg/kg (ddY female mouse; [3]): 138%
23 | CN(C)CCOC[C@H](O)c1ccc(OCc2ccccc2)cc1 [compound 103] | 36 | 
24 | OC(COC1CCN(Cc2ccccc2)CC1)c1ccccc1 (stereo not shown) [compound 113, 2-(1-benzylpiperidin-4-yloxy)-1-phenylethanol hydrochloride] | 45 | 
25 | OC(COCCN1CCc2ccccc2C1)c1ccccc1 (stereo not shown) [compound 165] | 24 | 

Row | Compound | inhibition at 10 µg/mL (acetylcholinesterase; [1]) [%] | also measured
26 | CN(C)CCOCC(O)c1cccc(NS(=O)(=O)c2ccccc2)c1 (stereo not shown) [compound 182] | 38 | Acute toxicity (ddY male mice): no death case
27 | CC(=O)OC(COCCN(C)C)c1cccc(OC(=O)Nc2cccc(Cl)c2)c1.Cl (stereo not shown) [compound 190, 1-acetoxy-1-[3-(3-chlorophenylcarbamoyloxy)phenyl]-2-[2-(N,N-dimethylamino)ethoxy]ethane hydrochloride] |  | Acute toxicity (ddY male mice): no death case; inhibition at 10 µg/mL (acetylcholinesterase): 76%
28 | CN(C)CCOCC(O)c1ccc(SCc2ccccc2)cc1 (stereo not shown) [compound 222, 1-(4-benzylthiophenyl)-2-[2-(N,N-dimethylamino)ethoxy]ethanol hydrochloride] | 83 | response vs control in vivo at 100 mg/kg (ddY female mouse; 0.5 h): 152%
29 | CN(C)CCOCC(O)c1ccc(S(=O)(=O)Cc2ccccc2)cc1 (stereo not shown) [compound 223] | 74 | response vs control in vivo at 100 mg/kg (ddY female mouse; [3]): 149%
30 | CN(C)CCOCC(O)c1ccc(-c2cccs2)cc1 (stereo not shown) [compound 224] | 36 | response vs control in vivo at 100 mg/kg (ddY female mouse; [2]): 155%
31 | CN(C)CCOCC(O)c1cccc2ccccc12 (stereo not shown) [compound 228, 2-[2-(N,N-dimethylamino)ethoxy]-1-(1-naphthyl)ethanol hydrochloride] | 30 | response vs control in vivo at 100 mg/kg (ddY female mouse; 1 h): 144%
32 | CN(C)CCOCC(O)c1ccc(Cl)c2ccccc12 (stereo not shown) [compound 230] | 25 | response vs control in vivo at 100 mg/kg (ddY female mouse; [2]): 177%
33 | CN(C)CCCOCC(O)c1cccc2ccccc12 (stereo not shown) [compound 233] | 59 | 
34 | OC(COCCN1CCCCC1)c1cccc2ccccc12 (stereo not shown) [compound 237] | 44 | response vs control in vivo at 100 mg/kg (ddY female mouse; [2]): 149%
35 | COc1ccc(C(O)COCCN(C)C)c2ccccc12 (stereo not shown) [compound 239] | 22 | response vs control in vivo at 100 mg/kg (ddY female mouse; [2]): 150%
36 | CN(CCOCC(O)c1cccc2ccccc12)Cc1ccccc1 (stereo not shown) [compound 241] | 31 | 
37 | CN(C)CCOCC(O)c1cccc2ccc(Cl)cc12 (stereo not shown) [compound 246] | 30 | response vs control in vivo at 100 mg/kg (ddY female mouse; [2]): 128%
38 | CN(C)CCOCC(O)c1cccc2cccc(Cl)c12 (stereo not shown) [compound 247] | 26 | response vs control in vivo at 100 mg/kg (ddY female mouse; [2]): 124%
39 | O=C(c1ccc(F)cc1)C1CCN(CCOCC(O)c2cccc3ccccc23)CC1 (stereo not shown) [compound 260, 2-{2-[4-(p-fluorobenzoyl)piperidin-1-yl]ethoxy}-1-(1-naphthyl)ethanol hydrochloride] | 43 | response vs control in vivo at 100 mg/kg (ddY female mouse; 1 h): 124%
40 | OC(COCCN1CCN(Cc2ccccc2)CC1)c1cccc2ccccc12 (stereo not shown) [compound 302] | 38 | response vs control in vivo at 100 mg/kg (ddY female mouse; [3]): 182%
41 | CN(C)CCOCC(O)c1ccc2ncccc2c1 (stereo not shown) [compound 319] | 30 | Acute toxicity (ddY male mice): no death case
42 | CN(C)CCOCC(O)c1ccc2c(c1)CC(=O)N2 (stereo not shown) [compound 322] | 20 | 
43 | CN(C)CCOCC(O)c1ccc2c(c1)CCN2 (stereo not shown) [compound 329] | 45 | 
44 | CN(C)CCCOCC(O)c1ccc2sccc2c1 (stereo not shown) [compound 336] | 21 | response vs control in vivo at 100 mg/kg (ddY female mouse; [3]): 224%
45 | O=C1CCc2cc(C(O)COCc3cccnc3)ccc2N1 (stereo not shown) [compound 341] | 61 | 
46 | OC(COCCC1CCN(Cc2ccccc2)CC1)c1ccc2sccc2c1 (stereo not shown) [compound 342] | 67 | response vs control in vivo at 100 mg/kg (ddY female mouse; [3]): 157%
47 | O=C(c1ccc(F)cc1)C1CCN(CCOCC(O)c2ccc3sccc3c2)CC1 (stereo not shown) [compound 350] | 42 | response vs control in vivo at 100 mg/kg (ddY female mouse; [3]): 147%
48 | OC(COCCN1CCN(c2ncccn2)CC1)c1ccc2sccc2c1 (stereo not shown) [compound 352] | 26 | 
49 | CN(C)CCOCC(O)c1nccn1Cc1ccccc1 (stereo not shown) [compound 372] | 30 | 
50 | CN(C)CCOCC(O)c1ccc([N+](=O)[O-])s1 (stereo not shown) [compound 405, 1-(5-nitro-2-thienyl)-2-[2-(N,N-dimethylamino)ethoxy]ethanol] | 59 | response vs control in vivo at 100 mg/kg (ddY female mouse; [3]): 137%
